pIC50: −log10 of the molar value.
Columns and labels:
[1] = system: Human breast cancer cells SK-BR-3 (WT); assay: Cell proliferation inhibition assay (CTG), SK-BR-3 (WT); assay type: cell-based; conditions: SK-BR-3 (WT) cells, 3 days incubation, CTG readout
Protocol: (§1) Cell Proliferation Inhibition Assay
(§2) 1. Experimental Materials
(§3) II. Experimental Protocol
(§4) • a) Cell suspension was prepared; • b) The medium was removed from the culture flask; • c) The cells were rinsed once with PBS; • d) Trypsin was added for digestion, and the cells were centrifuged and collected; • e) The cells were resuspended in medium, counted and adjusted to an appropriate concentration; • f) 100 µL of cell suspension was added to each well of a 96-well plate. One plate was used for each cell line, which was incubated overnight in a 37 °C, 5% CO2 incubator.
(§5) 2. Treatment of Compounds
(§6) • a) Serial dilutions of the test compounds were prepared: The compound was prepared as a 10 mM stock solution. 18 µL of the stock solution was dissolved in 982 µL of the culture medium containing DMSO, followed by 4-fold serial dilutions in culture medium containing 0.5% DMSO to give 9 concentrations. The concentrations of the diluted compound were as follows: 180000 nM, 45000 nM, 11250 nM, 2812.5 nM, 703.13 nM, 175.78 nM, 43.95 nM, 10.99 nM, and 2.75 nM. • b) After thorough mixing, 20 µL of each compound solution was added to the cell plate containing 100 µL of cells per well. Each concentration was tested in triplicate. Final concentrations of the compound were as follows: 30000 nM, 7500 nM, 1875 nM, 468.75 nM, 117.188 nM, 29.30 nM, 7.32 nM, 1.83 nM, and 0.46 nM. • c) The cells were transferred into the incubator and incubated for 3 days.
(§7) The cell plate was removed, 25 µL of CTG reagent was added to each well of the 96-well plate, the mixture was shook on a plate shaker at room temperature for 10 minutes, and the plate was read.
(§8) The cell survival rate was calculated using the following formula (% Cell Survival): % Cell Survival = 100% × (OD_Sample−OD_LCave)/(OD_HC−OD_LCave) [formula] • OD_HC: Reading of the 0.1‰ DMSO control group • OD_Sample: Reading of cells treated with compound • OD_LCave: Reading of blank medium
(§9) Analyzed by Prism: Dose-response-Inhibition - Log (inhibitor) vs response (three parameters for the best fit).

[2] = system: Human breast cancer cells T47D (H1047R); assay: Cell proliferation inhibition assay (CTG), T47D (H1047R); assay type: cell-based; conditions: 3 days incubation, CTG readout
Protocol: as §1, §2, §3, §4, §5, §6, §7, §8, §9

| SMILES | pIC50 ([1]; Homo sapiens, 72 h) | pIC50 ([2]; Homo sapiens, 72 h) | pIC50 [1] | pIC50 [2] |
| --- | --- | --- | --- | --- |
| Cc1cc(C(C)Nc2ccccc2C(=O)O)c2nc3c(c(=O)n2c1)CCN(S(=O)(=O)C(C)C)C3 (single isomer, unassigned) [Compound C196] | < 5.30 | ≥ 6.30 |  |  |
| CC(C)S(=O)(=O)N1CCc2c(nc3c([C@@H](C)Nc4ccccc4C(=O)O)cc(F)cn3c2=O)C1 [Compound C193] | < 5.30 | ≥ 6.30 |  |  |
| CCOC(=O)c1ccccc1N[C@H](C)c1cc(C)cc2c(=O)c3c(oc12)CN(S(=O)(=O)N1CCOCC1)CC3 [Compound C165] | < 5.30 | 5.70 to 6.30 |  |  |
| C[C@@H](Nc1ccccc1C(=O)O)c1cc(F)cc2c(=O)c3c(oc12)CN(S(=O)(=O)c1c(Cl)ccc2c1CCO2)CC3 [Compound C152] | < 5.30 | ≥ 6.30 |  |  |
| C[C@@H](Nc1ccccc1C(=O)O)c1cc(F)cn2c(=O)c3c(nc12)CN(S(=O)(=O)c1ccccc1)CC3 [Compound C192] | < 5.30 | ≥ 6.30 |  |  |
| C[C@@H]1CN(S(=O)(=O)N2CCc3c(oc4c([C@@H](C)Nc5ccccc5C(=O)O)cc(F)cc4c3=O)C2)C[C@@H](C)O1 [Compound C155] | < 5.30 | ≥ 6.30 |  |  |
| Cc1cc(C(C)Nc2ccccc2C(=O)O)c2oc3c(c(=O)c2c1)CCN(C(c1ccccc1)C(F)(F)F)C3 (single isomer, unassigned) [Compound C209] |  |  | < 5.30 | ≥ 6.30 |
| Cc1cc([C@@H](C)Nc2ccccc2C(=O)O)c2nc3c(c(=O)n2c1)CCN(S(=O)(=O)c1ccccc1)C3 [Compound C191] | < 5.30 | ≥ 6.30 |  |  |
| Cc1cc(C(C)Nc2ccc(Cl)nc2C(=O)O)c2nc3c(c(=O)n2c1)CCN(S(=O)(=O)c1c(C)cnn1C)C3 (single isomer, unassigned) [Compound C184] | < 5.30 | ≥ 6.30 |  |  |
| CC(Nc1ccccc1C(=O)O)c1cc(F)cc2c(=O)c3c(oc12)CN(S(=O)(=O)C(C)C)CC3 (single isomer, unassigned) [Compound C39] | < 5.30 | ≥ 6.30 |  |  |
| CC[C@@H](C)N1CCc2c(oc3c([C@@H](C)Nc4ccccc4C(=O)O)cc(C)cc3c2=O)C1 [Compound C179] | < 5.30 | ≥ 6.30 |  |  |
| Cc1cc([C@@H](C)Nc2ccccc2C(=O)O)c2oc3c(c(=O)c2c1)CCN(c1ncccn1)C3 [Compound C175] | < 5.30 | ≥ 6.30 |  |  |
| C[C@@H](Nc1ccccc1C(=O)O)c1cc(F)cc2c(=O)c3c(oc12)CN(S(=O)(=O)c1ccccc1)CC3 [Compound C89] | < 5.30 | ≥ 6.30 |  |  |
| C[C@@H](Nc1ccccc1C(=O)O)c1cc(F)cn2c(=O)c3c(nc12)CN(c1ccccc1)CC3 [Compound C208] | < 5.30 | 5.70 to 6.30 |  |  |
| Cc1cnn(C)c1S(=O)(=O)N1CCc2c(nc3c([C@@H](C)Nc4ccccc4C(=O)O)cc(F)cn3c2=O)C1 [Compound C182] | < 5.30 | ≥ 6.30 |  |  |
| Cc1cc([C@@H](C)Nc2ccccc2C(=O)O)c2oc3c(c(=O)c2c1)CCN(c1ccccc1)C3 [Compound C180] | < 5.30 | ≥ 6.30 |  |  |
| CC(Nc1ccccc1C(=O)O)c1cc(F)cc2c(=O)c3c(oc12)CN(C(=O)N1CCCC1)CC3 (single isomer, unassigned) [Compound C41] | < 5.30 | ≥ 6.30 |  |  |
| C[C@@H](Nc1ccccc1C(=O)O)c1cc(F)cn2c(=O)c3c(nc12)CN(Cc1ccccc1)CC3 [Compound C190] | < 5.30 | 5.70 to 6.30 |  |  |
| CC(Nc1ccccc1C(=O)O)c1cc(F)cc2c(=O)n3c(nc12)CN(c1cccnc1)CC3 (single isomer, unassigned) [Compound C15] | < 5.30 | 5.70 to 6.30 |  |  |
| Cc1nnn(C)c1S(=O)(=O)N1CCc2c(oc3c([C@@H](C)Nc4ccccc4C(=O)O)cc(F)cc3c2=O)C1 [Compound C157] | < 5.30 | 5.70 to 6.30 |  |  |
| C[C@@H](Nc1ccccc1C(=O)O)c1cc(F)cc2c(=O)c3c(oc12)CN(S(=O)(=O)N1CCOC(C)(C)C1)CC3 [Compound C143] | < 5.30 | ≥ 6.30 |  |  |

The next lines start with the values.

| pIC50 ([1]; Homo sapiens, 72 h) | pIC50 ([2]; Homo sapiens, 72 h) | pIC50 [1] | pIC50 [2] | SMILES |
| --- | --- | --- | --- | --- |
| < 5.30 | 5.70 to 6.30 |  |  | C[C@@H](Nc1ccc(Cl)nc1C(=O)O)c1cc(F)cc2c(=O)c3c(oc12)CN(S(=O)(=O)c1cccc(C#N)c1)CC3 [Compound C91] |
| < 5.30 | ≥ 6.30 |  |  | Cc1cc([C@@H](C)Nc2ccc(Cl)nc2C(=O)O)c2oc3c(c(=O)c2c1)CCN(S(=O)(=O)c1ccccc1)C3 [Compound C82] |
| < 5.30 | ≥ 6.30 |  |  | C[C@@H](Nc1ccc(Cl)nc1C(=O)O)c1cc(F)cc2c(=O)c3c(oc12)CN(S(=O)(=O)N1CCOC(C)(C)C1)CC3 [Compound C130] |
| < 5.30 | ≥ 6.30 |  |  | C[C@@H](Nc1ccc(Cl)nc1C(=O)O)c1cc(F)cc2c(=O)c3c(oc12)CN(S(=O)(=O)C1CCCCC1)CC3 [Compound C109] |
| < 5.30 | ≥ 6.30 |  |  | Cc1cc([C@@H](C)Nc2ccccc2C(=O)O)c2oc3c(c(=O)c2c1)CCN(S(=O)(=O)c1c(Cl)ccc2c1CCO2)C3 [Compound C151] |
| < 5.30 | ≥ 6.30 |  |  | Cc1cc(C(C)Nc2ccc(Cl)nc2C(=O)O)c2oc3c(c(=O)c2c1)CCN(S(=O)(=O)C(C)C)C3 (single isomer, unassigned) [Compound C49] |
| < 5.30 | ≥ 6.30 |  |  | Cc1cc([C@@H](C)Nc2ccccc2C(=O)O)c2oc3c(c(=O)c2c1)CCN(S(=O)(=O)Cc1ccccc1)C3 [Compound C181] |
| < 5.30 | ≥ 6.30 |  |  | Cc1cc([C@@H](C)Nc2ccccc2C(=O)O)c2oc3c(c(=O)c2c1)CCN(S(=O)(=O)N1CCC(F)(F)CC1)C3 [Compound C153] |
| < 5.30 | ≥ 6.30 |  |  | C[C@H]1CN(S(=O)(=O)N2CCc3c(oc4c([C@@H](C)Nc5ccc(Cl)nc5C(=O)O)cc(F)cc4c3=O)C2)CCO1 [Compound C123] |
| < 5.30 | ≥ 6.30 |  |  | C[C@@H](Nc1ccc(Cl)nc1C(=O)O)c1cc(F)cc2c(=O)c3c(oc12)CN(S(=O)(=O)c1cccn2ncc(Cl)c12)CC3 [Compound C137] |
| < 5.30 | ≥ 6.30 |  |  | Cc1cc([C@@H](C)Nc2ccccc2C(=O)O)c2oc3c(c(=O)c2c1)CCN(S(=O)(=O)c1c(C)cnn1C)C3 [Compound C158] |
| < 5.30 | 5.70 to 6.30 |  |  | CC(C)S(=O)(=O)N1CCc2c(oc3c([C@@H](C)Nc4ccc(Cl)nc4C(=O)O)cc(F)cc3c2=O)C1 [Compound C72] |
| < 5.30 | 5.70 to 6.30 |  |  | C[C@@H](Nc1ccc(Cl)nc1C(=O)O)c1cc(F)cc2c(=O)c3c(oc12)CN(C(=O)N1CC(F)C1)CC3 [Compound C83] |
| < 5.30 | ≥ 6.30 |  |  | Cc1cc([C@@H](C)Nc2ccc(Cl)nc2C(=O)O)c2oc3c(c(=O)c2c1)CCN(S(=O)(=O)C1(C)CC1)C3 [Compound C113] |
| < 5.30 | ≥ 6.30 |  |  | C[C@@H](Nc1ccc(Cl)nc1C(=O)O)c1cc(F)cc2c(=O)c3c(oc12)CN(S(=O)(=O)c1c(F)cccc1F)CC3 [Compound C114] |
| < 5.30 | ≥ 6.30 |  |  | Cc1cc(C(C)Nc2ccccc2C(=O)O)c2oc3c(c(=O)c2c1)CCN(S(=O)(=O)N1CCCC1)C3 (single isomer, unassigned) [Compound C56] |
| < 5.30 | ≥ 6.30 |  |  | COc1ccccc1S(=O)(=O)N1CCc2c(oc3c([C@@H](C)Nc4ccc(Cl)nc4C(=O)O)cc(F)cc3c2=O)C1 [Compound C96] |
| < 5.30 | ≥ 6.30 |  |  | C[C@@H](Nc1ccc(Cl)nc1C(=O)O)c1cc(F)cc2c(=O)c3c(oc12)CN(S(=O)(=O)c1cccc2c1CCO2)CC3 [Compound C120] |
| < 5.30 | ≥ 6.30 |  |  | Cc1cc(C(C)Nc2ccccc2C(=O)O)c2oc3c(c(=O)c2c1)CCN(S(=O)(=O)C1CC1)C3 (single isomer, unassigned) [Compound C59] |
| < 5.30 | ≥ 6.30 |  |  | C[C@@H](Nc1ccc(Cl)nc1C(=O)O)c1cc(F)cc2c(=O)c3c(oc12)CN(S(=O)(=O)C1=CCOCC1)CC3 [Compound C138] |
| < 5.30 | 5.70 to 6.30 |  |  | C[C@@H](Nc1ccc(Cl)nc1C(=O)O)c1cc(F)cc2c(=O)c3c(oc12)CN(S(=O)(=O)c1nccn1C)CC3 [Compound C101] |
| < 5.30 | 5.70 to 6.30 |  |  | Cc1cc([C@@H](C)Nc2ccc(Cl)nc2C(=O)O)c2oc3c(c(=O)c2c1)CCN(S(=O)(=O)N1CCOCC1)C3 [Compound C81] |
| < 5.30 | 5.70 to 6.30 |  |  | C[C@@H](Nc1ccc(Cl)nc1C(=O)O)c1cc(F)cc2c(=O)c3c(oc12)CN(S(=O)(=O)C1CC1)CC3 [Compound C68] |
| < 5.30 | ≥ 6.30 |  |  | C[C@@H](Nc1ccc(Cl)nc1C(=O)O)c1cc(F)cc2c(=O)c3c(oc12)CN(S(=O)(=O)c1ccccc1C(F)(F)F)CC3 [Compound C115] |
